Usually kon stands for the second-order rate constant of association. One may read the koff as a measure of how fast the partners let go of each other. Read a low koff as a long-lived complex.

The record followed here is paper PMC8705818, “Experimental Characterization of the Interaction between the N-Terminal SH3 Domain of Crkl and C3G” (International Journal of Molecular Sciences, 2021).

One experiment deals with T1, N-SH3 D138A (Crkl) (Homo sapiens, UniProt P46109, D138A).
T1 construct: The construct encoding the N-SH3 domain of Crkl was subcloned in a pET28b+ plasmid vector; His-tag; made in house; host or cells: E. coli BL21
The experiment can be described thus: Stopped-flow kinetic binding, N-SH3 D138A versus C3G277–296. To be noted: pH 7.5, D138A, 50 mM Hepes pH 7.5, 10 °C. The procedure: (§1) We rapidly mixed a constant concentration of C3G277–296 peptide (0.5 µM) versus increasing concentrations of N-SH3 (ranging from 0.5 to 5 µM) and the observed rate constants (kobs) obtained at different ionic strength conditions (buffer Hepes 50 mM, pH 7.0, 0.15 M, 0.3 M, 0.5 M and 1 M NaCl) were plotted as function of concentration of N-SH3 and fitted with a linear equation (Figure 1). By following previously derived equations [19, 20], the dependence of kobs as function of [N-SH3] was fitted with Equation (1), taking into account the non-pseudo-first order conditions, allowing us to calculate the microscopic association rate constant (kon), the microscopic dissociation rate constant (koff) of the binding reaction and the equilibrium dissociation rate constant KD, such as koff/kon. To increase the reliability of the calculated KD, we resorted to directly obtaining a koff value through displacement experiments (Table 1), in which a preincubated complex of N-SH3 domain and dansylated C3G277–296 peptide (at the concentration of 0.5 and 2 µM, respectively) were rapidly mixed versus a high excess of nondansylated peptide (ranging from 20 to 40 µM). In agreement with the theory in [21], the observed rate constants were insensitive to displacer concentration. In all binding and displacement experiments conducted, traces were satisfactorily fitted with a single-exponential equation. (1) kobs=(kon^2∗(2−[NSH3])^2+koff^2+2konkoff(2+[NSH3]))^1/2
Then, we employed D138A, E140A and D141A variants in kinetic binding experiments with C3G, and we explored the effect of increasing ionic strength on the binding reaction of these variants.
Kinetic binding experiments were performed on a single-mixing SX-18 stopped-flow instrument (Applied Photophysics), by mixing a constant concentration (0.5 μM) of C3G dansylated versus increasing concentrations of N-SH3 at 10 °C. Ionic strength dependence of wt N-SH3 was performed with concentrations ranging from 1 to 5 µM for 0 M NaCl condition and from 0.5 to 5 µM for 0.15 M, 0.3 M, 0.5 M and 1 M NaCl, buffer Hepes 50 mM pH 7.0. The excitation wavelength was 280 nm, and fluorescence was collected using a 455 nm cut-off filter. At least, five independent acquisitions were collected and averaged for each experiment. The resulting averages were all satisfactorily fitted with a single-exponential equation. Buffers used for pH dependence were: 50 mM Sodium Acetate pH 5.0, 50 mM Sodium Acetate, pH 5.5, Bis–Tris 50 mM pH 6.0, Bis–Tris 50 mM pH 6.5, Hepes 50 mM pH 7.0, Hepes 50 mM pH 7.5, Tris–HCl 50 mM pH 8.0, Tris–HCl 50 mM pH 8.5, Tris–HCl 50 mM pH 9.0, all with added 0.5 M NaCl. […]

The target in experiment [1] is T2, N-SH3 domain of Crkl (WT) (Homo sapiens, UniProt P46109).
T2 construct: The construct encoding the N-SH3 domain of Crkl was subcloned in a pET28b+ plasmid vector; His-tag; made in house; host or cells: E. coli BL21
The experiment can be described thus: Stopped-flow displacement, N-SH3 WT:dansylated C3G277–296 complex versus nondansylated peptide. In kind it is binding. To be noted: 10 °C. The procedure: as §1
Kinetic binding experiments were performed on a single-mixing SX-18 stopped-flow instrument (Applied Photophysics), by mixing a constant concentration (0.5 μM) of C3G dansylated versus increasing concentrations of N-SH3 at 10 °C. Ionic strength dependence of wt N-SH3 was performed with concentrations ranging from 1 to 5 µM for 0 M NaCl condition and from 0.5 to 5 µM for 0.15 M, 0.3 M, 0.5 M and 1 M NaCl, buffer Hepes 50 mM pH 7.0. The excitation wavelength was 280 nm, and fluorescence was collected using a 455 nm cut-off filter. At least, five independent acquisitions were collected and averaged for each experiment. The resulting averages were all satisfactorily fitted with a single-exponential equation. Buffers used for pH dependence were: 50 mM Sodium Acetate pH 5.0, 50 mM Sodium Acetate, pH 5.5, Bis–Tris 50 mM pH 6.0, Bis–Tris 50 mM pH 6.5, Hepes 50 mM pH 7.0, Hepes 50 mM pH 7.5, Tris–HCl 50 mM pH 8.0, Tris–HCl 50 mM pH 8.5, Tris–HCl 50 mM pH 9.0, all with added 0.5 M NaCl. Concentrations of N-SH3 used for each experiment were: 4.0–8.0 µM at pH 5.0, 2.0–7.0 µM at pH 5.5, 1.0–5.0 µM at pH 6.0, 0.5–5.0 µM at pH 6.5, 1.5–6.0 µM at pH 7.0, 0.5–5.0 µM at pH 7.5, 1.5–6.0 µM at pH 8.0, 1.5–6.0 µM pH 8.5, 1.5–6.0 µM at pH 9.0. For the ionic strength dependence of D138A and E140A variants buffer used were 0.05 M NaCl, 0.1 M NaCl, 0.15 M NaCl, in 50 mM Hepes pH 7.5. Concentrations of N-SH3 D138A used for each experiment were: 2.0–4.5 µM at 0 M NaCl, 2.5–6.0 µM at 0.05 M, 0.1 M, 0.15 M NaCl. Concentrations of N-SH3 E140A used for each experiment were: 2.0–4.5 µM at 0 M NaCl, 3.0–5.5 µM at 0.05 M NaCl, 3.0–5.0 µM at 0.1 M NaCl, 3.0–5.5 µM at 0.15 M NaCl. Displacement kinetic experiments were performed by mixing a preincubated complex of N-SH3 (in all its variants) and dansylated C3G versus a high excess of nondansylated C3G (see text for details). Experiments were performed in the same buffer conditions as the binding experiments, except for D141A variant, for which 20% w/v sucrose was added to the buffer Hepes 50 mM pH 7.0. Displacement traces were fitted with a single-exponential equation.

SMILES strings stand for the structures. Peptide text beside a SMILES is read from it. * marks the point of attachment. Dansyl = CN(C)c1cccc2c(S(=O)(=O)*)cccc12

T2 sequence (P46109 123-183 limits assumed): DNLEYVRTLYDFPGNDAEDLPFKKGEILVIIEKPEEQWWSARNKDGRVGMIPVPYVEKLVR
T1 sequence (P46109 123-183 D138A limits assumed): as the sequence (P46109 123-183 limits assumed) above, with D16A counted along it

As for `CC(C)C[C@H](NC(=O)[C@H](C)NC(=O)[C@@H]1CCCN1C(=O)[C@@H]1CCCN1C(=O)[C@@H]1CCCN1C(=O)[C@H](CO)NC(=O)[C@H](CC(N)=O)NC(=O)[C@H](CC(=O)O)NC(=O)[C@@H](NC(=O)[C@@H](NS(=O)(=O)c1cccc2c(N(C)C)cccc12)C(C)C)C(C)C)C(=O)N1CCC[C@H]1C(=O)N1CCC[C@H]1C(=O)N[C@@H](CCCCN)C(=O)N[C@@H](CCCCN)C(=O)N[C@@H](CCCNC(=N)N)C(=O)N[C@@H](CCC(N)=O)C(=O)N[C@@H](CO)C(=O)N[C@@H](C)C(=O)N1CCC[C@H]1C(=O)N[C@@H](CO)C(=O)O` [C3G277–296] (Dansyl-VVDNSPPPALPPKKRQSAPS-OH), the on-rate (kon) amounted to 1.58e+08 ± 1.2e+07 M⁻¹ s⁻¹ at N-SH3 D138A (Crkl) (0 M NaCl, 0.5 µM dansylated peptide vs 2.0–4.5 µM N-SH3 D138A); 8.1e+07 ± 8e+06 M⁻¹ s⁻¹ at N-SH3 D138A (Crkl) (0.05 M NaCl, 0.5 µM dansylated peptide vs 2.5–6.0 µM N-SH3 D138A); 4.8e+07 ± 8e+06 M⁻¹ s⁻¹ at N-SH3 D138A (Crkl) (0.10 M NaCl, 0.5 µM dansylated peptide vs 2.5–6.0 µM N-SH3 D138A); 1.2e+07 ± 5e+06 M⁻¹ s⁻¹ on N-SH3 D138A (Crkl) (0.15 M NaCl, 0.5 µM dansylated peptide vs 2.5–6.0 µM N-SH3 D138A). Also, the off-rate constant (koff) in experiment [1] (pH 5, pH 5.0 (50 mM Sodium Acetate), 0.5 M NaCl, displacement) amounted to 257 ± 10 s⁻¹; in experiment [1] (pH 5.5, pH 5.5 (50 mM Sodium Acetate), 0.5 M NaCl, displacement), 81 ± 3 s⁻¹; in experiment [1] (pH 6, pH 6.0 (Bis–Tris 50 mM), 0.5 M NaCl, displacement), 78 ± 3 s⁻¹; in experiment [1] (pH 6.5, pH 6.5 (Bis–Tris 50 mM), 0.5 M NaCl, displacement) it was 65 ± 2 s⁻¹; in experiment [1] (pH 7, 0 M NaCl, Hepes 50 mM pH 7.0, displacement by 20–40 µM nondansylated peptide) it was 12 ± 1 s⁻¹; in experiment [1] (pH 7, 0.15 M NaCl, Hepes 50 mM pH 7.0, displacement), 23 ± 1 s⁻¹. Also, the koff is 32 ± 2 s⁻¹ in experiment [1] (pH 7, 0.3 M NaCl, Hepes 50 mM pH 7.0, displacement); 34 ± 1 s⁻¹ in experiment [1] (pH 7, 0.5 M NaCl (ionic strength series), Hepes 50 mM pH 7.0, displacement); 51 ± 2 s⁻¹ in experiment [1] (pH 7, 1.0 M NaCl, Hepes 50 mM pH 7.0, displacement); 42 ± 2 s⁻¹ in experiment [1] (pH 7, pH 7.0 (Hepes 50 mM), 0.5 M NaCl (pH series), displacement); 34 ± 2 s⁻¹ in experiment [1] (pH 7.5, pH 7.5 (Hepes 50 mM), 0.5 M NaCl, displacement); 46 ± 3 s⁻¹ in experiment [1] (pH 8, pH 8.0 (Tris–HCl 50 mM), 0.5 M NaCl, displacement). Moreover, the koff in experiment [1] (pH 8.5, pH 8.5 (Tris–HCl 50 mM), 0.5 M NaCl, displacement) was determined as 40 ± 3 s⁻¹; in experiment [1] (pH 9, pH 9.0 (Tris–HCl 50 mM), 0.5 M NaCl, displacement), 39 ± 2 s⁻¹.
